Columns and labels:
[1] = test system: TNF-α; experiment: In vitro measurement of TNF-α in human PBMC (LPS stimulated); type: cell-based; conditions: for inhibition at 1 µM: NA = No activity, read-out: TNF-α Inhibition (%) at Conc. (1 μM); for inhibition at 10 µM: read-out: TNF-α Inhibition (%) at Conc. (10 μM)
Experimental: In Vitro Measurement of Tumor Necrosis Factor Alpha (TNF-α)
This assay determines the effect of test compounds on the production of TNF α in human Peripheral Blood Mononuclear Cells (PBMC). Compounds were tested for their ability to inhibit the activity of TNF α in human PBMC. PBMC were isolated from blood (of healthy volunteers) using BD Vacutainer CPT™ (Cell preparation tube, BD Bio Science) and suspended in RPMI medium (Physiol. Res. 52: 593-598, 2003). The test compounds were pre-incubated with PBMC (0.5 million/incubation well) for 15 minutes at 37° C. and then stimulated with Lipopolysaccharide (Escherichia coli: B4; 1 μg/ml) for 18 hours at 37° C. in 5% CO2. The levels of TNF-α in the cell culture medium were estimated using enzyme-linked immunosorbent assay performed in a 96 well format as per the procedure of the manufacturer (Cayman Chemical, Ann Arbor, USA).

[2] = test system: IL-6; experiment: In vitro measurement of IL-6 in human PBMC (LPS stimulated); type: cell-based; conditions: for inhibition at 1 µM: read-out: IL-6 Inhibition (%) Conc. (1 μM); for inhibition at 10 µM: read-out: IL-6 Inhibition (%) Conc. (10 μM)
Experimental: In Vitro Measurement of Interleukin-6(IL-6)
This assay determins the effect of test compounds on the production of IL-6 in human PBMC (Physiol. Res. 52: 593-598, 2003). Compounds were tested for their ability to inhibit the activity of IL-6 in human PBMC. PBMC were isolated from blood using BD Vacutainer CPT™ Cell preparation tube (BD Bio Science) and suspended in RPMI medium. The test compounds were pre-incubated with PBMC (0.5 million/incubation well) for 15 minutes at 37° C. and then stimulated with Lipopolysaccharide (Escherichia coli: B4; 1 μg/ml) for 18 hours at 37° C. in 5% CO2. The levels of IL-6 in cell culture medium were estimated using enzyme-linked immunosorbent assay performed in a 96 well format as per the procedure of the manufacturer (Cayman Chemical, Ann Arbor, USA).

[3] = target: T1, purified recombinant COX-2 (Homo sapiens, UniProt P35354); experiment: COX-2 enzyme based assay; type: biochemical; conditions: NA = No activity, read-out: % Inhibition in rEnzyme Assay COX-2
T1 sequence (P35354 18-604): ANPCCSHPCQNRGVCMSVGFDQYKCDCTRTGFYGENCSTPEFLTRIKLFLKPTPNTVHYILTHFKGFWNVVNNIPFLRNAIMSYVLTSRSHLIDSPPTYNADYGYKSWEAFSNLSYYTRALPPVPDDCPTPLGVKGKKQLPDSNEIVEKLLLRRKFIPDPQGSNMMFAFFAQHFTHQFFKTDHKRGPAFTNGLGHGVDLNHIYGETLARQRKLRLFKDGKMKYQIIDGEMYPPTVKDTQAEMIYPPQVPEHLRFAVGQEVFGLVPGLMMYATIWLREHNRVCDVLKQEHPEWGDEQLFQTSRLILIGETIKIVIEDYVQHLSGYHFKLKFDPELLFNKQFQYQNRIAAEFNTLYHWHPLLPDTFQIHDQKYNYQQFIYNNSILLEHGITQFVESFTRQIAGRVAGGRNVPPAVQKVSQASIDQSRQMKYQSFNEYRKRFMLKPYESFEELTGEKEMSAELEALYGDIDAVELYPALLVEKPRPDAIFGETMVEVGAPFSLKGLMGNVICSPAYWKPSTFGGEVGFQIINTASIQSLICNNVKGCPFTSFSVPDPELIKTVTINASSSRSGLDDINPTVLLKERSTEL
Experimental: (§1) COX-1 and COX-2 Enzyme Based Assay
(§2) COX-1 and COX-2 enzyme based assays were carried out to check the inhibitory potential of the test compounds on the production of prostaglandin by purified recombinant COX-1/COX-2 enzyme (Proc. Nat. Acad. Sci. USA, 88, 2692-2696, 1991; J. Clin. Immunoassay 15, 116-120, 1992) In this assay, the potential of the test compound to inhibit the production of prostaglandin either by COX-1 or COX-2 from arachidonic acid (substrate) was measured. This was an enzyme based in-vitro assay to evaluate selective COX inhibition with good reproducibility.
(§3) Arachidonic acid was converted to PGH2 (Intermediate product) by COX1/COX-2 in the presence or absence of the test compound. The reaction was carried out at 37° C. and after 2 minutes it was stopped by adding 1M HCl. Intermediate product PGH2 was converted to a stable prostanoid product PGF2αby SnCl2 reduction. The amount of PGF2α, produced in the reaction was inversely proportional to the COX inhibitory potential of the test compound. The prostanoid product was quantified via enzyme immunoassay (EIA) using a broadly specific antibody that binds to all the major forms of prostaglandin, using Cayman ELISA kit as per the procedure outlined by the manufacturer (Cayman Chemicals, Ann Arbor, USA).

[4] = target: purified recombinant COX-1 (Homo sapiens, UniProt P23219); experiment: COX-1 enzyme based assay; type: biochemical; conditions: NA = No activity, read-out: % Inhibition in rEnzyme Assay COX-1
Sequence of purified recombinant COX-1 (P23219 24-599): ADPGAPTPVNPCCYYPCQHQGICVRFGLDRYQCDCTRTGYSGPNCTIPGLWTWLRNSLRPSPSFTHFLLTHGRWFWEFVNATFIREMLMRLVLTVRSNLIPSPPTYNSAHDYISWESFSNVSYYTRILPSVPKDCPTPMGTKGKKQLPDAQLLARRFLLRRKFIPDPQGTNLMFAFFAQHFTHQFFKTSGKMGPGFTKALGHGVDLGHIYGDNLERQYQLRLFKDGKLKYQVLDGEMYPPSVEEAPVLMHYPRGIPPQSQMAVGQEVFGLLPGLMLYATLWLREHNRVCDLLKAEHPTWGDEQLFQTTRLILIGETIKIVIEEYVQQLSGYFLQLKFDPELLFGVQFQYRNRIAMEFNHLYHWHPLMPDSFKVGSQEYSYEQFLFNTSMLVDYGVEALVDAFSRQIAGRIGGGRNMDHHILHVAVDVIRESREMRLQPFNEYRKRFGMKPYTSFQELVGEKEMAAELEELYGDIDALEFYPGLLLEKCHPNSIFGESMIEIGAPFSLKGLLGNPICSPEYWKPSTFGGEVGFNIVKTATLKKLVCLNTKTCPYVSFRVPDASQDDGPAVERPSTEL
Experimental: as §1, §2, §3

Compound	inhibition at 1 µM [1] [%]	inhibition at 10 µM [1] [%]	other results
CS(=O)(=O)c1ccc(-c2nc(C(F)(F)F)nc(OS(=O)(=O)c3ccc(F)cc3)c2-c2ccccc2)cc1 [Example 26, 6-[4-(Methylsulfonyl)phenyl]-5-phenyl-2-(trifluoromethyl)pyrimidin-4-yl-4-fluorobenzenesulfonate]	32.7	50.8	–
CS(=O)(=O)c1ccc(-c2nc(C(F)(F)F)nc(OS(=O)(=O)c3cccs3)c2-c2ccccc2)cc1 [Example 25, 6-[4-(Methylsulfonyl)phenyl]-5-phenyl-2-(trifluoromethyl)pyrimidin-4-yl thiophene-2-sulfonate]	38.8	94	–
CCOC(=O)C1CCN(c2nc(C(F)(F)F)nc(-c3ccc(F)cc3)c2-c2cccc(S(N)(=O)=O)c2)CC1 [Example 59, Ethyl-1-[5-(3-aminosulfonylphenyl)-6-(4-fluorophenyl)-2-(trifluoromethyl)pyrimidin-4-yl]piperidine-4-carboxylate]	–	–	inhibition at 1 µM [2]: 26.1%; inhibition at 10 µM [2]: 36.8%
CS(=O)(=O)N1CCN(c2nc(C(F)(F)F)nc(-c3ccc(F)cc3)c2-c2cccc(S(N)(=O)=O)c2)CC1 [Example 78, 3-[4-[4-(Methylsulfonyl)piperazin-1-yl]-6-(4-fluorophenyl)-2-(trifluoromethyl)pyrmidin-5-yl]benzenesulfonamide]	–	–	inhibition at 1 µM [2]: 22.3%; inhibition at 10 µM [2]: 25.3%
NS(=O)(=O)c1cccc(-c2c(-c3ccccc3)nc(C(F)(F)F)nc2N2CCN(c3ccc([N+](=O)[O-])cn3)CC2)c1 [Example 117, 3-[6-{4-[5-(Nitro)pyridin-2-yl]piperazin-1-yl}-4-phenyl-2-(trifluoromethyl)pyrimidin-5-yl]benzenesulfonamide]	69.7	86.5	–
CCOC(=O)C1CCN(c2nc(C(F)(F)F)nc(-c3ccccc3)c2-c2cccc(S(N)(=O)=O)c2)CC1 [Example 61, Ethyl 1-[6-phenyl-5-(3-aminosulfonylphenyl)1-2-(trifluoromethyl)pyrimidin-4-yl]piperidine-4-carboxylate]	–	–	inhibition at 1 µM [2]: 24.5%; inhibition at 10 µM [2]: 54.5%
NNc1nc(C(F)(F)F)nc(-c2ccncc2)c1-c1ccc(F)cc1 [Example 13, 5-(4-Fluorophenyl)-4-hydrazino-6-pyridin-4-yl-2-(trifluoromethyl)pyrimidine]	25.8	35.3	–
CNS(=O)(=O)c1ccc(-c2c(-c3ccc(S(C)(=O)=O)cc3)nc(C(F)(F)F)nc2N2CCOCC2)cc1 [Example 34, 4-{4-(Morpholin-4yl)-6-[4-(methylsulfonyl)phenyl]-2-(trifluoromethyl)pyrimidin-5-yl}-N-methylbenzenesulfonamide]	–	80.9	–
NS(=O)(=O)c1ccc(-c2nc(C(F)(F)F)nc(N3CCNCC3)c2-c2ccc(F)cc2)cc1 [Example 31, 4-[5-(4-Fluorophenyl)-6-piperazin-1-yl-2-(trifluoromethyl)pyrimidin-4-yl]benzenesulfonamide]	37.4	62.5	–
CS(=O)(=O)c1ccc(-c2nc(C(F)(F)F)nc(OS(=O)(=O)CCCCl)c2-c2ccccc2)cc1 [Example 19, 6-[4-(Methylsulfonyl)phenyl]-5-phenyl-2-(trifluoromethyl)pyrimidin-4-yl-3-chloropropane-1-sulfonate]	–	–	inhibition at 1 µM [2]: 27.9%; inhibition at 10 µM [2]: 41.9%
CS(=O)(=O)c1ccc(-c2nc(C(F)(F)F)nc(OS(=O)(=O)c3ccc(OC(F)(F)F)cc3)c2-c2ccccc2)cc1 [Example 24, 6-[4-(Methylsulfonyl)phenyl]-5-phenyl-2-(trifluoromethyl)pyrimidin-4-yl-4-trifluoromethoxybenzenesulfonate]	53.9	32.9	–
NS(=O)(=O)c1cccc(-c2c(-c3ccccc3)nc(C(F)(F)F)nc2N2CCN(c3ccccn3)CC2)c1 [Example 58]	–	–	inhibition at 1 µM ([3]; 1 μM): 11.2%; inhibition at 10 µM ([3]; 10 μM): 2.62%; inhibition at 1 µM ([4]; 1 μM): 10.2%; inhibition at 10 µM ([4]; 10 μM): 9.59%
NNc1nc(C(F)(F)F)nc(-c2ccncc2)c1-c1ccccc1 [Example 12, 4-Hydrazino-5-phenyl-6-pyridin-4-yl-2-(trifluoromethyl)pyrimidine]	34.8	78.4	–
NNc1nc(C(F)(F)F)nc(-c2cccnc2)c1-c1ccccc1 [Example 11, 4-Hydrazino-5-phenyl-6-pyridin-3-yl-2-(trifluoromethyl)pyrimidine]	12.7	50.7	–
Cc1cnc(C(=O)N2CCN(c3nc(C(F)(F)F)nc(-c4ccc(S(C)(=O)=O)cc4)c3-c3ccccc3)CC2)cn1 [Example 36, 4-[4-(Methylsulfonyl)phenyl]-6-{4-[(5-methylpyrazin-2-yl)carbonyl]piperazin-1-yl}-5-phenyl-2-(trifluoromethyl)pyrimidine]	51.3	26.9	–
CS(=O)(=O)c1ccc(-c2nc(C(F)(F)F)nc(OS(=O)(=O)c3ccccc3F)c2-c2ccccc2)cc1 [Example 27, 6-[4-(Methylsulfonyl)phenyl]-5-phenyl-2-(trifluoromethyl)pyrimidin-4-yl-2-fluorobenzenesulfonate]	43.5	51.9	–
COc1cc(N2CCN(c3nc(C(F)(F)F)nc(-c4ccc(F)cc4)c3-c3cccc(S(N)(=O)=O)c3)CC2)nc(OC)n1 [Example 66, 4-[4-(2,6-Dimethoxypyrimidin-4-yl)piperazin-1-yl]-5-(3-aminosulfonylphenyl)-6-(4-fluorophenyl)-2-(trifluoromethyl)pyrimidine]	57.9	80.7	–
CC(=O)Nc1ccc(N2CCN(c3nc(C(F)(F)F)nc(-c4ccc(S(C)(=O)=O)cc4)c3-c3ccc(F)cc3)CC2)nc1 [Example 119, 4-[5-(Acetylamino)pyridin-2-yl]piperazin-1-yl-5-(4-fluorophenyl)-6-[4-(methylsulfonyl)phenyl]-2-(trifluoromethyl)pyrimidine]	88.9	91.5	–

— US7863446B2, “Heterocycles” (Orchid Research Laboratories Limited, priority 2006, dated 2011)
